Laboratory results published in patent US9192611B2, “Formulations comprising methylthioninium chloride” (WisTa Laboratories Ltd., priority 2010, dated 2015).

Assays:
[1] = Thermodynamic stability of MTC hydrates as a function of RH and temperature; conditions: any T and RH; kinetically stable in a certain range
[2] = background statement; cited from earlier work

SMILES | Thermodynamic stability, in words [1] | RH down to which high kinetic stability is observed [2]
CN(C)c1ccc2nc3ccc(=[N+](C)C)cc-3sc2c1 [Form B, Methylthioninium chloride] | not thermodynamically stable | 
CN(C)c1ccc2nc3ccc(=[N+](C)C)cc-3sc2c1 [Form A, Methylthioninium chloride] |  | less than 20%
